Laboratory results from US20230250066A1, “HERBICIDAL CINNOLINE DERIVATIVES” (SYNGENTA CROP PROTECTION AG, priority 2020, published 2023).

Legend:
Assay type in all cases: in vivo
[1] = tested on: Amaranthus retoflexus (AMARE); test: Pre-emergence herbicidal test; settings: 1000 g/ha, evaluated after 13 days
Setaria faberi (SETFA) [2] = test: Pre-emergence herbicidal test; settings: 1000 g/ha, evaluated after 13 days
[3] = tested on: Echinochloa crus-galli (ECHCG); test: Pre-emergence herbicidal test; settings: 1000 g/ha, evaluated after 13 days
[4] = tested on: Ipomoea hederacea (IPOHE); test: Pre-emergence herbicidal test; settings: 1000 g/ha, evaluated after 13 days
[5] = tested on: Abutilon theophrasti (ABUTH); test: Pre-emergence herbicidal test; settings: 1000 g/ha, evaluated after 13 days
Zea mays (ZEAMX) [6] = test: Pre-emergence herbicidal test; settings: 1000 g/ha, evaluated after 13 days
[7] = tested on: Abutilon theophrasti (ABUTH); test: Post-emergence herbicidal test; settings: 1000 g/ha unless otherwise stated, evaluated after 13 days
Outline: (§1)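 Damage score (0–5; 5=81-100%, 1=10-20%, 0=0%) read 13 d after spraying. Spray: acetone/water 50:50 + 0.5% Tween 20, 1000 g/ha unless stated.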

[8] = tested on: Amaranthus retoflexus (AMARE); test: Post-emergence herbicidal test; settings: 1000 g/ha unless otherwise stated, evaluated after 13 days
Outline: as §1

[9] = tested on: Echinochloa crus-galli (ECHCG); test: Post-emergence herbicidal test; settings: 1000 g/ha unless otherwise stated, evaluated after 13 days
Outline: as §1

[10] = tested on: Ipomoea hederacea (IPOHE); test: Post-emergence herbicidal test; settings: 1000 g/ha unless otherwise stated, evaluated after 13 days
Outline: as §1

Setaria faberi (SETFA) [11] = test: Post-emergence herbicidal test; settings: 1000 g/ha unless otherwise stated, evaluated after 13 days
Outline: as §1

Zea mays (ZEAMX) [12] = test: Post-emergence herbicidal test; settings: 1000 g/ha unless otherwise stated, evaluated after 13 days
Outline: as §1

SMILES | percentage damage caused to the plant, five-point scale, AMARE [1] | percentage damage caused to the plant, five-point scale, SETFA (Setaria faberi (SETFA) [2]) | percentage damage caused to the plant, five-point scale, ECHCG [3] | percentage damage caused to the plant, five-point scale, IPOHE [4] | percentage damage caused to the plant, five-point scale, ABUTH [5] | percentage damage caused to the plant, five-point scale, ZEAMX (Zea mays (ZEAMX) [6]) | percentage damage caused to the plant, ABUTH (five-point scale) [7] | percentage damage caused to the plant, AMARE (five-point scale) [8] | percentage damage caused to the plant, ECHCG (five-point scale) [9] | percentage damage caused to the plant, IPOHE (five-point scale) [10] | percentage damage caused to the plant, SETFA (five-point scale) (Setaria faberi (SETFA) [11]) | percentage damage caused to the plant, ZEAMX (five-point scale) (Zea mays (ZEAMX) [12])
COC(=O)c1nn(-c2ccc(OC(F)(F)F)cc2)c2cc(OC)cc(SC)c2c1=O [Compound P56, methyl 7-methoxy-5-methylsulfanyl-4-oxo-1-[4-(trifluoromethoxy)phenyl]cinnoline-3-carboxylate] | 0 (0=0%) | 0 (0=0%) | 0 (0=0%) | 0 (0=0%) | 0 (0=0%) | 0 (0=0%) | 0 (0=0%) | 1 (1=10-20%) | 0 (0=0%) | 0 (0=0%) | 0 (0=0%) | 0 (0=0%)
CCOC(=O)c1nn(-c2ccc(OC(F)(F)F)cc2)c2cc(OC)cc(SC)c2c1=O [Compound P57, ethyl 7-methoxy-5-methylsulfanyl-4-oxo-1-[4-(trifluoromethoxy)phenyl]cinnoline-3-carboxylate] | 0 (0=0%) | 0 (0=0%) | 0 (0=0%) | 0 (0=0%) | 0 (0=0%) | 0 (0=0%) | 0 (0=0%) | 0 (0=0%) | 1 (1=10-20%) | 0 (0=0%) | 1 (1=10-20%) | 0 (0=0%)
CCCCCCOC(=O)c1nn(-c2ccc(OC(F)(F)F)cc2)c2cccc(S(C)(=O)=O)c2c1=O [Compound P59, hexyl 5-methylsulfonyl-4-oxo-1-[4-(trifluoromethoxy)phenyl]cinoline-3-carboxylate] | 2 (2=21-40%) | 4 (4=61-80%) | 3 (3=41-60%) | 2 (2=21-40%) | 3 (3=41-60%) | 3 (3=41-60%) | 1 (1=10-20%) | 1 (1=10-20%) | 4 (4=61-80%) | 3 (3=41-60%) | 4 (4=61-80%) | 2 (2=21-40%)
CCCCCCCCCCCOC(=O)c1nn(-c2ccc(OC(F)(F)F)cc2)c2cccc(S(C)(=O)=O)c2c1=O [Compound P60, undecyl 5-methylsulfonyl-4-oxo-1-[4-(trifluoromethoxy)phenyl]cinnoline-3-carboxylate] | 1 (1=10-20%) | 4 (4=61-80%) | 1 (1=10-20%) | 0 (0=0%) | 1 (1=10-20%) | 1 (1=10-20%) | 1 (1=10-20%) | 1 (1=10-20%) | 1 (1=10-20%) | 1 (1=10-20%) | 1 (1=10-20%) | 1 (1=10-20%)
